From patent US11384371B2, “Hydroxylation of branched aliphatic or aromatic substrates employing the amycolatopsis lurida cytochrome P450” (HYPHA DISCOVERY LIMITED, priority 2016, dated 2022)

Key:
P450aluC09 [1] = experiment: Whole-cell biocatalysis (hydroxylation) by recombinant E. coli expressing P450aluC09 with redox partners; format: cell-based, Amycolatopsis lurida
Experimental: The recombinant expression strains E. coli BL21 Star (DE3) pLysS with pQR368bb-aluC09-aluF03 and E. coli BL21 Star (DE3) pLysS with p3C.1-AluC09-AluF03 were cultured in Terrific Broth media as in Example 5 and gene expression was induced by adding IPTG to reach the final concentration of 1 mM. The culture was supplemented with FeSO4 and 5′-aminolevulinic acid as in Example 5.
(§1) After four hours of incubation at 27° C. and 200 rpm, 2.5 mL of induced culture was dosed with 10 μL of either bosentan or diclofenac (25 mg/mL each) in a 24-well block (Enzyscreen). The whole-cell biocatalysis reaction was allowed to further incubate for 24 hours at 30° C. and 300 rpm. The reaction was stopped with an equal amount of acetonitrile and conversion assessed by UPLC-MS analysis in a similar manner to that described in Example 7.

[2] = system: P450aluC09 fused in-frame with the reductase domain of P450BM3; experiment: Whole-cell biocatalysis by E. coli expressing P450aluC09 fused with the reductase domain of P450BM3; format: cell-based, Amycolatopsis lurida / Bacillus megaterium; conditions: pET21a-AluC09_BM3, E. coli BL21 Star (DE3) pLysS
Experimental: as §1
The P450aluC09 was engineered to fuse in-frame to the reductase domain of P450BM3 from Bacillus megaterium in a similar manner described in Scheps et al. Microb Biotechnol. 2013; 6(6):694-707.
Whole-cell hydroxylating activity of E. coli BL21 Star (DE3) pLysS with either pQR368bb-aluC09-aluF03 or pET21a-AluC09_BM3 plasmid were compared against the substrates bosentan and diclofenac in a similar manner described in Example 10.

P450aluC09 [3] = experiment: Whole-cell biocatalysis (hydroxylation) by recombinant E. coli expressing P450aluC09 with redox partners; format: cell-based, Amycolatopsis lurida; remark: listed apart in the source
P450aluC09 [4] = experiment: Cell-free hydroxylase activity of lyophilised recombinant P450aluC09-ferredoxinaluF03-ferredoxin reductaseSCF15A, conversion by UPLC-MS; format: biochemical, Amycolatopsis lurida; conditions: 16-20 hours; for hydroxylase activity (conversion to hydroxylated product): 0.1 mg/ml substrate
Experimental: Lyophilised material of recombinant P450aluC09, ferredoxinaluF03 and ferredoxin reductaseSCF15A was made as described in examples 5 and 6 and suspended in water to a final concentration of 2.9 μM of P450aluC09 and 919 UN of ferredoxin reductaseSCF15A. […] 50 mM potassium phosphate pH 7.4, 5 mM MgCl2, 0.1 mg/ml substrate compound such as bosentan (CarboSynth Ltd, UK), buparvaquone (MedChemtronica, Sweden), BIRB796 (Stratech Scientific Limited, UK), diclofenac (Sigma-Aldrich, UK), epothilone B (LC Laboratories, USA) or ritonavir (TCI, UK), tivantinib (MedChemtronica, Sweden), 2.4 μM of P450AluC09, 767 UN of ferredoxin reductaseSCF15A, 5 mM G6P, 1 mM NADP, 2 UN/ml G6PDH in a final volume of 100 μL. After 16-20 hours, reactions were extracted with an equal volume of acetonitrile, centrifuged to remove precipitated proteins and conversion assessed by UPLC-MS analysis.
The method in Example 7 was followed except for the buffer exchange section. Four different buffers were chosen: a) 50 mM Acetate pH 5, 100 mM NaCl, 5 mM MgCl2; b) 50 mM potassium phosphate pH7.5, 5 mM MgCl2; c) 50 mM Tris pH 8, 100 mM NaCl, 5 mM MgCl2; d) 50 mM Piperidine pH11, 100 mM NaCl, 5 mM MgCl2. For each buffer condition 1.5 ml of resuspended lyophilised crude extract was exchanged using Vivaspin 20K cut off by performing 3 cycles of concentration and then dilution of the material with the new buffer. Exchanging in 50 mM potassium phosphate pH7.5, 5 mM MgCl2, the usual buffer for preparing and assessment of the enzyme preparations, provided the control for the robustness of the material during the buffer exchange process. […] Of particular note is the activity of this recombinant enzyme at such elevated pH values e.g., pH value of 11. […] Other advantages of catalysis at higher pH are the ability to directly utilise the product from a prior step resulting in such products, such as chemical synthesis, base-catalysed hydrolysis of a feedstock, or reaction product from another enzyme where increasing pH has been used to stop that reaction

[5] = Ampicillin resistant strain (pQR368bb-aluC09-aluF03), E. coli BL21 Star (DE3) pLysS
[6] = High copy number strain (p3C.1-AluC09-AluF03), E. coli BL21 Star (DE3) pLysS, 24 hours 30° C.
[7] = Medium copy number strain (pQR368bb-aluC09-aluF03), E. coli BL21 Star (DE3) pLysS, 24 hours 30° C.
[8] = Native ferredoxinaluF03 (p3C.1-AluC09-AluF03), E. coli BL21 Star (DE3) pLysS
[9] = ferredoxinaluF03 and ferredoxin reductaseSCF15A (pQR368bb-aluC09-aluF03), E. coli BL21 Star (DE3) pLysS, Table 7 comparison
[10] = host E. coli BL21 Star (DE3) pLysS, pQR368bb-aluC09-aluF03
[11] = Ferredoxinfd1 from S. griseus 11796 (p3C-AluC09), E. coli BL21 Star (DE3) pLysS
[12] = Kanamycin resistant strain (pHD02-AluC09-AluF03), E. coli BL21 Star (DE3) pLysS
[13] = host E. coli BL21 (DE3) pLysS, pQR368bb-aluC09-aluF03
[14] = host E. coli BL21 (DE3), pQR368bb-aluC09-aluF03
[15] = host E. coli BL21 Star (DE3), pQR368bb-aluC09-aluF03
[16] = pH values of 7.5 and above (pH 8-11)

SMILES | % yield of parent-derived products (P450aluC09 [1]; [5]) | % yield of parent-derived products (P450aluC09 [1]; [6]) | % yield of parent-derived products (P450aluC09 [1]; [7]) | % yield of parent-derived products (P450aluC09 [1]; [8]) | % yield of parent-derived products (P450aluC09 [1]; [9]) | % yield of parent-derived products (P450aluC09 [1]; [10]) | % yield of parent-derived products [2] | % yield of parent-derived products (P450aluC09 [3]; [11]) | % yield of parent-derived products (P450aluC09 [3]; [12]) | % yield of parent-derived products (P450aluC09 [3]; [13]) | % yield of parent-derived products (P450aluC09 [3]; [14]) | % yield of parent-derived products (P450aluC09 [3]; [15]) | hydroxylase activity (conversion to hydroxylated product) (P450aluC09 [4]; 10° C.) | hydroxylase activity (conversion to hydroxylated product) (P450aluC09 [4]; 22° C.) | hydroxylase activity (conversion to hydroxylated product) (P450aluC09 [4]; 27° C. (standard condition)) | hydroxylase activity (conversion to hydroxylated product) (P450aluC09 [4]; 37° C.) | hydroxylase activity on the substrate at reaction pH (P450aluC09 [4]; pH5 (50 mM Acetate)) | hydroxylase activity on the substrate at reaction pH (P450aluC09 [4]; [16]) | also measured
O=C(O)Cc1ccccc1Nc1c(Cl)cc(O)cc1Cl [4′-HO-Diclofenac, 4′-hydroxydiclofenac] | 7.5% | 8.7% | 27.4% | 60.3% | 46.0% | 7.5% | 4.7% | 11.5% | 6.0% | 11.3% | >1% | 1.5% | 14% | 16% | 21% | 13% | – | – | –
O=C(O)Cc1cc(O)ccc1Nc1c(Cl)cccc1Cl [5-HO-Diclofenac, 5-hydroxydiclofenac] | 35.2% | 23.8% | 60.3% | 23.8% | 12.4% | 35.2% | <1% | 4.2% | 48.1% | 45.1% | 10.3% | 6.5% | 17% | 14% | 12% | 1% | – | – | –
COc1ccccc1Oc1c(NS(=O)(=O)c2ccc(C(C)(C)CO)cc2)nc(-c2ncccn2)nc1OCCO [HO-Bosentan] | 26.6% | 18.2% | 52.6% | 52.6% | 29.5% | 26.6% | 9.3% | 6.3% | 41.6% | 34.1% | 13.6% | 9.1% | 91% | 64% | 86% | 33% | – | – | % yield of parent-derived products (P450aluC09 [3]; Ferredoxin reductasecamA and ferredoxincamB from P. putida (pHD02-AluC09-PdR-PdX), E. coli BL21 (DE3)): 21.2%; % yield of parent-derived products (P450aluC09 [3]; ferredoxinaluF03 and ferredoxin reductaseSCF15A (pHD02-AluC09-AluF03), E. coli BL21 (DE3)): 27.4%; hydroxylase activity (conversion to hydroxylated product) (P450aluC09 [4]; 45° C.): 19%
COc1ccccc1Oc1c(NS(=O)(=O)c2ccc(C(C)(C)C)cc2)nc(-c2ncccn2)nc1OCCO [bosentan, reference compound] | – | – | – | – | – | – | – | – | – | – | – | – | – | – | – | – | only barely detectable | remain | –
O=C(O)Cc1ccccc1Nc1c(Cl)cccc1Cl [diclofenac, reference compound] | – | – | – | – | – | – | – | – | – | – | – | – | – | – | – | – | only barely detectable | remain | –
CC(C)[C@H](NC(=O)N(C)Cc1csc(C(C)(C)O)n1)C(=O)N[C@@H](Cc1ccccc1)C[C@H](O)[C@H](Cc1ccccc1)NC(=O)OCc1cncs1 [ε-HO-Ritonavir, ε-HO—N-methylisopropylthiazoloylmethyl-ritonavir] | – | – | – | – | – | – | – | – | – | – | – | – | 36% | 36% | 34% | 19% | – | – | –
